Assay results published in article PMC3789958, “A Bacterial Glucanotransferase Can Replace the Complex Maltose Metabolism Required for Starch to Sucrose Conversion in Leaves at Night*” (The Journal of Biological Chemistry, 2013).
Each block holds one molecule with its values, some of them ahead of it.

Columns and labels:
MalQ [1] = biological target: T1, MalQ (Escherichia coli, UniProt P15977); assay: SPR, steady-state affinity fit, MalQ amine-coupled to CM5 chip; assay type: binding; conditions: 10 mM HEPES pH 7.0, 25 °C; read-out: dissociation constant
T1 construct: recombinant in E. coli, His-tagged, IMAC purified; biotinylated or amine-coupled for SPR
T1 sequence (P15977 1-694): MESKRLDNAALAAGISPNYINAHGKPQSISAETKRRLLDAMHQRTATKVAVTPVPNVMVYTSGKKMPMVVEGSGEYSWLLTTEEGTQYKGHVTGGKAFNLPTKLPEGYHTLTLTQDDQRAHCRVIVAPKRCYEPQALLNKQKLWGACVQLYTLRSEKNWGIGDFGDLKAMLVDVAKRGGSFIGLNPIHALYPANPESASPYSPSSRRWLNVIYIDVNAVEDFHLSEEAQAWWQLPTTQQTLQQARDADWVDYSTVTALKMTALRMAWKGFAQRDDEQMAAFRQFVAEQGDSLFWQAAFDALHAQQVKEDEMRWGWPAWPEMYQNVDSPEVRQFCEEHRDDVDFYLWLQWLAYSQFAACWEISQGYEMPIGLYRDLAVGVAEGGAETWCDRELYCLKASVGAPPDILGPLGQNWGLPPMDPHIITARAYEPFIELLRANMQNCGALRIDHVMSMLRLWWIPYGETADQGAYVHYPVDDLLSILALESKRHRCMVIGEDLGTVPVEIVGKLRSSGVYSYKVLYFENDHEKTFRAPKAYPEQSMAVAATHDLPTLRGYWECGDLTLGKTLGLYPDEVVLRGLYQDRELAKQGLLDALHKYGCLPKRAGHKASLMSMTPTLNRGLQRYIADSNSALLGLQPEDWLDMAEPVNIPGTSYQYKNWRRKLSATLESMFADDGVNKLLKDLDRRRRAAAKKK

DPE2 [2] = biological target: T2, DPE2 (Arabidopsis thaliana, UniProt Q8RXD9); assay: SPR, steady-state affinity fit, biotinylated protein on streptavidin chip; assay type: binding; conditions: 10 mM HEPES pH 7.0, 25 °C
T2 construct: recombinant in E. coli Rosetta II, pET151, N-terminal His6 tag removed with TEV protease; homodimer; biotinylated for SPR
T2 sequence (Q8RXD9 1-955): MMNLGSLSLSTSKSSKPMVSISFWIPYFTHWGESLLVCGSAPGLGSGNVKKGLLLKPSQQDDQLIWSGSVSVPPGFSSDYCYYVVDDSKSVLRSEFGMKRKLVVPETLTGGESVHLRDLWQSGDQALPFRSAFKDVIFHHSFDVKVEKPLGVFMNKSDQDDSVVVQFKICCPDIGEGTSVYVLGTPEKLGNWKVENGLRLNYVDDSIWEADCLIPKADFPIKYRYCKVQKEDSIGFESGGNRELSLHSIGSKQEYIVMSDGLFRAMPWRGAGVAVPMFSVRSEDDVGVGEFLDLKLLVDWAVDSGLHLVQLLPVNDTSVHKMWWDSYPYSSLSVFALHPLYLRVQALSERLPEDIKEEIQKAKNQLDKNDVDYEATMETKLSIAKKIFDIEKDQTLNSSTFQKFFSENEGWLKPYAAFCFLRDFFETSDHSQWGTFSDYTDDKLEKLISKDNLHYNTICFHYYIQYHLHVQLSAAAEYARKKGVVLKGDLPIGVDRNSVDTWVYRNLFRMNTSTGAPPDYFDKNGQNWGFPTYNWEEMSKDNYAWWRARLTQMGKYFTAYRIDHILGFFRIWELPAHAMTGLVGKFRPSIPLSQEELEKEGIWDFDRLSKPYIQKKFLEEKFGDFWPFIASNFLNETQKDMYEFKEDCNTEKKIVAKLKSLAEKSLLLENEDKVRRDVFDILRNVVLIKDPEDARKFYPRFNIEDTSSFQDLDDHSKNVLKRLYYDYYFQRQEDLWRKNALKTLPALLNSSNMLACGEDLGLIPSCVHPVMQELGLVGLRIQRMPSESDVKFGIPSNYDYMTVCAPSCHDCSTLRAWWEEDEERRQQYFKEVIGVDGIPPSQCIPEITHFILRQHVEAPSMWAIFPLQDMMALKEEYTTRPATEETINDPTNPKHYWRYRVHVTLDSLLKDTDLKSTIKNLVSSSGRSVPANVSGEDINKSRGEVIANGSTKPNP

MalQ [3] = biological target: T1, MalQ; assay: as above; assay type: binding; conditions: 10 mM HEPES pH 7.0, 25 °C
DPE2 [4] = biological target: T2, DPE2; assay: coupled hexokinase / glucose-6-phosphate dehydrogenase assay, Hanes plot; assay type: biochemical; conditions: maltose as donor, glycogen as acceptor; two separate preparations; pH 7.9, 1 mM MgCl2
MalQ [5] = biological target: T1, MalQ; assay: as above; assay type: biochemical; conditions: maltose as donor, Glc7 as acceptor; two separate preparations; pH 7.9, 1 mM MgCl2
[6] = biological target: the molecule itself; assay: SEC; Superdex S-200 16/60 in 25 mM HEPES (pH 7.5), 50 mM NaCl; purified DPE2 after His tag cleavage; elution compared with molecular mass markers

Kd (MalQ [1]): 260 nM
Molecule: OC[C@H]1O[C@H](O[C@H]2[C@H](O)[C@@H](O)[C@@H](O[C@H]3[C@H](O)[C@@H](O)C(O)O[C@@H]3CO)O[C@@H]2CO)[C@H](O)[C@@H](O)[C@@H]1O (stereo partly drawn) [Glc3]

Kd (MalQ [1]): 410 nM
Molecule: OC[C@H]1O[C@H](O[C@H]2[C@H](O)[C@@H](O)[C@@H](O[C@H]3[C@H](O)[C@@H](O)[C@@H](O[C@H]4[C@H](O)[C@@H](O)C(O)O[C@@H]4CO)O[C@@H]3CO)O[C@@H]2CO)[C@H](O)[C@@H](O)[C@@H]1O (stereo partly drawn) [Glc4]
dissociation constant (DPE2 [2]): bound malto-oligosaccharides Glc5, Glc6, and Glc7 more strongly than Glc4

Molecule: OC[C@H]1O[C@H](O[C@H]2[C@H](O)[C@@H](O)[C@@H](O[C@H]3[C@H](O)[C@@H](O)[C@@H](O[C@H]4[C@H](O)[C@@H](O)[C@@H](O[C@H]5[C@H](O)[C@@H](O)C(O)O[C@@H]5CO)O[C@@H]4CO)O[C@@H]3CO)O[C@@H]2CO)[C@H](O)[C@@H](O)[C@@H]1O (stereo partly drawn) [Glc5]
dissociation constant (MalQ [3]): progressively lower affinities for Glc5, Glc6, and Glc7
dissociation constant (DPE2 [2]): bound malto-oligosaccharides Glc5, Glc6, and Glc7 more strongly than Glc4

Molecule: OC[C@H]1O[C@H](O[C@H]2[C@H](O)[C@@H](O)[C@@H](O[C@H]3[C@H](O)[C@@H](O)[C@@H](O[C@H]4[C@H](O)[C@@H](O)[C@@H](O[C@H]5[C@H](O)[C@@H](O)[C@@H](O[C@H]6[C@H](O)[C@@H](O)C(O)O[C@@H]6CO)O[C@@H]5CO)O[C@@H]4CO)O[C@@H]3CO)O[C@@H]2CO)[C@H](O)[C@@H](O)[C@@H]1O (stereo partly drawn) [Glc6]
dissociation constant (MalQ [3]): progressively lower affinities for Glc5, Glc6, and Glc7
dissociation constant (DPE2 [2]): bound malto-oligosaccharides Glc5, Glc6, and Glc7 more strongly than Glc4

Molecule: OC[C@H]1O[C@H](O[C@H]2[C@H](O)[C@@H](O)[C@@H](O[C@H]3[C@H](O)[C@@H](O)[C@@H](O[C@H]4[C@H](O)[C@@H](O)[C@@H](O[C@H]5[C@H](O)[C@@H](O)[C@@H](O[C@H]6[C@H](O)[C@@H](O)[C@@H](O[C@H]7[C@H](O)[C@@H](O)C(O)O[C@@H]7CO)O[C@@H]6CO)O[C@@H]5CO)O[C@@H]4CO)O[C@@H]3CO)O[C@@H]2CO)[C@H](O)[C@@H](O)[C@@H]1O (stereo partly drawn) [Glc7]
dissociation constant (MalQ [3]): progressively lower affinities for Glc5, Glc6, and Glc7
dissociation constant (DPE2 [2]): bound malto-oligosaccharides Glc5, Glc6, and Glc7 more strongly than Glc4

Km (DPE2 [4]): 2.9 and 2.3 mM
Km (MalQ [5]): 2.1 and 1.9 mM
Molecule: OC[C@H]1O[C@H](O[C@H]2[C@H](O)[C@@H](O)C(O)O[C@@H]2CO)[C@H](O)[C@@H](O)[C@@H]1O (stereo partly drawn) [maltose]

B1: DPE2 (4-alpha-glucanotransferase, disproportionating enzyme 2) from Arabidopsis, recombinant (enzyme, Arabidopsis thaliana, UniProt Q8RXD9 1-955, looked up)
chain: T2 sequence (Q8RXD9 1-955)
notes: DPE2, cytosolic 4-alpha-glucanotransferase of Arabidopsis thaliana, At2g40840; also called native DPE2; recombinant DPE2; source: E. coli Rosetta II, purified (nickel IMAC, TEV protease treatment, second IMAC, Superdex S-200); not shown: His6, N-terminal, cleaved
stoichiometry N [6]: 2
